Data reported in patent US20100063008A1, “GELATINOUS ELASTOMER COMPOSITIONS” (Silipos, Inc., priority 2008, published 2010).

Tests used:
[1] = Exudation of active agents from gel specimens to filter paper discs, quantified by UV, MS, GC and/or HPLC after extraction; type: physicochemical; conditions: for Active Agent Transferred from Gel to Filters: 37° C., 0.40 psi; for Total Active Agent Exuded from Gel: cumulative
Description: Sample filter paper discs were placed in contact with gel specimens of same diameter under constant low pressure (0.40 psi. (2.8 Mpa)) at 37° C. Multiple time-controlled exposures of the filter paper to the gel were preformed in succession to same side of gel. Quantification of active agent transferred to the filter paper discs was determined by UV, MS, GC and or HPLC analysis after extraction of active agent from the filter paper. Exudation rates was expressed as μg/unit time per unit surface area.
This compound was then divided into three aliquots' of approximately 10 grams each and poured into a 2.625″ diameter aluminum petri dish and allowed to cool to create individual gel samle discs. Subsequently, absorbent cellulose filter blotter paper was die cut to enough 2.625″ diameter discs to be employed as a wicking media for repeated exposure in direct contact with the gel compound under specific conditions as follows.
(§1) Exposure Conditions: 37-40 deg. C., Sample filter paper discs in contact with gel specimens of same diameter were stacked in […]. aluminum petri dishes, gel specimen diameter 2.625″×0.125″ thick, filter paper disc diameter 2.625″ with another petri dish and a 1 kg dead weight on top of stack. Pressure calculated at ˜0.407 psi. (2.8 Mpa) constant. Two replicates per test condition. Repeat exposures at 3 hours then repeat three exposures of 18 hours each, changing discs but keeping same gel specimen and same side of each gel specimen in contact with each successive filter paper disc sample.
The filter paper disc specimens aa through kk were then sent to an analytical laboratory for HPLC and GC analysis along with a small sample of each individual raw ingredient so that the HPLC and GC equipment could be calibrated for the protocol being employed by the lab. This calibration allowed for determining the maximum recoverable (measurable) amount of each ingredient that could be measured using these techniques and would later be used to correct the data. The analytical laboratory then detected and measured the amount of each of the added active agents that was flushed out of the filter paper discs using wet chemistry techniques known to those skilled in the art.
The analytical data was interpreted, and the amounts of each ingredient which was exuded into each filter paper blotter disc specimen, and subsequently extracted using wet chemistry, were then entered into a data analysis spreadsheet and adjusted based on the Analytical Recovery Rate to determine actual concentration of each ingredient extracted.

[2] = Total weight of exudate (oil) absorbed by filter paper blotter discs and theoretical amount of each ingredient exuded; type: physicochemical
Description: as §1
Data was calculated to determine the total weight of exudate absorbed by each individual sample filter paper blotter disc test specimen. Calculations were then performed based upon the ratios of ingredients in the gel disc formula to determine the theoretical amount of each ingredient that could have been exuded from the oil if the oil contained the same ratio of ingredients as contained in the control oil sample and in the gel.

[3] = Gel Specimen Number 1, 1 h filter exposure, time 0-1 h
[4] = Gel Specimen Number 1, 3 h filter exposure, time 1-4 h
[5] = Gel Specimen Number 1, 18 h filter exposure, time 4-22 h
[6] = Gel Specimen Number 1, 18 h filter exposure, time 22-40 h
[7] = Gel Specimen Number 1, 18 h filter exposure, time 40-58 h
[8] = Gel Specimen Number 1, Time 1 h
[9] = Gel Specimen Number 1, Time 4 h
[10] = Gel Specimen Number 1, Time 22 h
[11] = Gel Specimen Number 1, Time 40 h
[12] = Gel Specimen Number 1, Time 58 h
[13] = Gel Specimen Number 2, 1 h filter exposure, time 0-1 h
[14] = Gel Specimen Number 2, 3 h filter exposure, time 1-4 h
[15] = Gel Specimen Number 2, 18 h filter exposure, time 4-22 h
[16] = Gel Specimen Number 2, 18 h filter exposure, time 22-40 h
[17] = Gel Specimen Number 2, 18 h filter exposure, time 40-58 h
[18] = Gel Specimen Number 2, Time 1 h
[19] = Gel Specimen Number 2, Time 4 h
[20] = Gel Specimen Number 2, Time 22 h
[21] = Gel Specimen Number 2, Time 40 h
[22] = Gel Specimen Number 2, Time 58 h
[23] = Specimen aa, Hours 1, Cummulative Hours 1
[24] = Specimen bb, Hours 1, Cummulative Hours 1
[25] = Specimen cc, Hours 3, Cummulative Hours 4
[26] = Specimen dd, Hours 3, Cummulative Hours 4
[27] = Specimen ee, Hours 18, Cummulative Hours 22
[28] = Specimen ff, Hours 18, Cummulative Hours 22
[29] = Specimen gg, Hours 18, Cummulative Hours 40
[30] = Specimen hh, Hours 18, Cummulative Hours 40
[31] = Specimen ii, Hours 18, Cummulative Hours 58
[32] = Specimen kk, Hours 18, Cummulative Hours 58
[33] = Sample aa, Test Disc 1, Exposed 1 hours
[34] = Sample bb, Test Disc 1 Replicate, Exposed 1 hours
[35] = Sample cc, Test Disc 2, Exposed 3 hours
[36] = Sample dd, Test Disc 2 Replicate, Exposed 3 hours
[37] = Sample ee, Test Disc 3, Exposed 18 hours
[38] = Sample ff, Test Disc 3 Replicate, Exposed 18 hours
[39] = Sample gg, Test Disc 4, Exposed 18 hours
[40] = Sample hh, Test Disc 4 Replicate, Exposed 18 hours
[41] = Sample ii, Test Disc 5, Exposed 18 hours
[42] = Sample kk, Test Disc 5 Replicate, Exposed 18 hours

| Active Agent Transferred from Gel to Filters [1, 3] | Active Agent Transferred from Gel to Filters [1, 4] | Active Agent Transferred from Gel to Filters [1, 5] | Active Agent Transferred from Gel to Filters [1, 6] | Active Agent Transferred from Gel to Filters [1, 7] | Total Active Agent Exuded from Gel [1, 8] | Total Active Agent Exuded from Gel [1, 9] | Total Active Agent Exuded from Gel [1, 10] | Total Active Agent Exuded from Gel [1, 11] | Total Active Agent Exuded from Gel [1, 12] | Active Agent Transferred from Gel to Filters [1, 13] | Active Agent Transferred from Gel to Filters [1, 14] | Active Agent Transferred from Gel to Filters [1, 15] | Active Agent Transferred from Gel to Filters [1, 16] | Active Agent Transferred from Gel to Filters [1, 17] | Total Active Agent Exuded from Gel [1, 18] | Total Active Agent Exuded from Gel [1, 19] | Total Active Agent Exuded from Gel [1, 20] | Total Active Agent Exuded from Gel [1, 21] | Total Active Agent Exuded from Gel [1, 22] | Compound | also measured |
| --- | --- | --- | --- | --- | --- | --- | --- | --- | --- | --- | --- | --- | --- | --- | --- | --- | --- | --- | --- | --- | --- |
| 10 μg per filter | 11 μg per filter | 21 μg per filter | 31 μg per filter | 15 μg per filter | 10 µg | 21 µg | 42 µg | 72 µg | 87 µg | 12 μg per filter | 15 μg per filter | 30 μg per filter | 21 μg per filter | 16 μg per filter | 12 µg | 27 µg | 57 µg | 78 µg | 94 µg | O=c1c(O)c(-c2ccc(O)c(O)c2)oc2cc(O)cc(O)c12 [Quercetin] | Quantitative Analysis - Islechem u-gram extraction [1, 23]: 9 u-gram; Quantitative Analysis - Islechem u-gram extraction [1, 24]: 11 u-gram; Quantitative Analysis - Islechem u-gram extraction [1, 25]: 9.4 u-gram; Quantitative Analysis - Islechem u-gram extraction [1, 26]: 13.2 u-gram; Quantitative Analysis - Islechem u-gram extraction [1, 27]: 18.6 u-gram; Quantitative Analysis - Islechem u-gram extraction [1, 28]: 28.6 u-gram; Quantitative Analysis - Islechem u-gram extraction [1, 29]: 27.5 u-gram; Quantitative Analysis - Islechem u-gram extraction [1, 30]: 19 u-gram; Quantitative Analysis - Islechem u-gram extraction [1, 31]: 13.2 u-gram; Quantitative Analysis - Islechem u-gram extraction [1, 32]: 14.2 u-gram; Estimated grams of ingredient exuded (theoretical amount from ratios of ingredients in the gel disc formula) [2, 33]: 0.0009 grams; Estimated grams of ingredient exuded (theoretical amount from ratios of ingredients in the gel disc formula) [2, 34]: 0.0012 grams; Estimated grams of ingredient exuded (theoretical amount from ratios of ingredients in the gel disc formula) [2, 35]: 0.0009 grams; Estimated grams of ingredient exuded (theoretical amount from ratios of ingredients in the gel disc formula) [2, 36]: 0.0014 grams; Estimated grams of ingredient exuded (theoretical amount from ratios of ingredients in the gel disc formula) [2, 37]: 0.0024 grams; Estimated grams of ingredient exuded (theoretical amount from ratios of ingredients in the gel disc formula) [2, 38]: 0.0024 grams; Estimated grams of ingredient exuded (theoretical amount from ratios of ingredients in the gel disc formula) [2, 39]: 0.0025 grams; Estimated grams of ingredient exuded (theoretical amount from ratios of ingredients in the gel disc formula) [2, 40]: 0.0022 grams; Estimated grams of ingredient exuded (theoretical amount from ratios of ingredients in the gel disc formula) [2, 41]: 0.0020 grams; Estimated grams of ingredient exuded (theoretical amount from ratios of ingredients in the gel disc formula) [2, 42]: 0.0020 grams |
| 841 μg per filter | 977 μg per filter | 1955 μg per filter | 1682 μg per filter | 916 μg per filter | 841 µg | 1818 µg | 3773 µg | 5455 µg | 6370 µg | 1159 μg per filter | 1284 μg per filter | 1864 μg per filter | 1307 μg per filter | 1523 μg per filter | 1159 µg | 2443 µg | 4307 µg | 5614 µg | 7136 µg | CCCCCCCCCCCCCCCC(=O)OC/C=C(C)/C=C/C=C(C)/C=C/C1=C(C)CCCC1(C)C [Vit. A Palmitate, reference compound] | Quantitative Analysis - Islechem u-gram extraction [1, 23]: 740 u-gram; Quantitative Analysis - Islechem u-gram extraction [1, 24]: 1020 u-gram; Quantitative Analysis - Islechem u-gram extraction [1, 25]: 860 u-gram; Quantitative Analysis - Islechem u-gram extraction [1, 26]: 1130 u-gram; Quantitative Analysis - Islechem u-gram extraction [1, 27]: 1720 u-gram; Quantitative Analysis - Islechem u-gram extraction [1, 28]: 1640 u-gram; Quantitative Analysis - Islechem u-gram extraction [1, 29]: 1480 u-gram; Quantitative Analysis - Islechem u-gram extraction [1, 30]: 1150 u-gram; Quantitative Analysis - Islechem u-gram extraction [1, 31]: 806 u-gram; Quantitative Analysis - Islechem u-gram extraction [1, 32]: 1340 u-gram; Estimated grams of ingredient exuded (theoretical amount from ratios of ingredients in the gel disc formula) [2, 33]: 0.0022 grams; Estimated grams of ingredient exuded (theoretical amount from ratios of ingredients in the gel disc formula) [2, 34]: 0.0031 grams; Estimated grams of ingredient exuded (theoretical amount from ratios of ingredients in the gel disc formula) [2, 35]: 0.0024 grams; Estimated grams of ingredient exuded (theoretical amount from ratios of ingredients in the gel disc formula) [2, 36]: 0.0035 grams; Estimated grams of ingredient exuded (theoretical amount from ratios of ingredients in the gel disc formula) [2, 37]: 0.0062 grams; Estimated grams of ingredient exuded (theoretical amount from ratios of ingredients in the gel disc formula) [2, 38]: 0.0062 grams; Estimated grams of ingredient exuded (theoretical amount from ratios of ingredients in the gel disc formula) [2, 39]: 0.0064 grams; Estimated grams of ingredient exuded (theoretical amount from ratios of ingredients in the gel disc formula) [2, 40]: 0.0057 grams; Estimated grams of ingredient exuded (theoretical amount from ratios of ingredients in the gel disc formula) [2, 41]: 0.0051 grams; Estimated grams of ingredient exuded (theoretical amount from ratios of ingredients in the gel disc formula) [2, 42]: 0.0051 grams |
